Assay results as given in ChEMBL document CHEMBL1944592 (Bioorg Med Chem Lett, 2012).

Key:
Format in all cases: functional, cell-based
[1] = molecular target: T1, Peroxisome proliferator-activated receptor gamma (Homo sapiens) (UniProt P37231); experiment: Agonist activity at human PPARgamma expressed in MG-63 cells at 2 times EC50 concentration by reporter gene-based transactivation assay relative to PPARgamma full agonist
T1 sequence (whole entry): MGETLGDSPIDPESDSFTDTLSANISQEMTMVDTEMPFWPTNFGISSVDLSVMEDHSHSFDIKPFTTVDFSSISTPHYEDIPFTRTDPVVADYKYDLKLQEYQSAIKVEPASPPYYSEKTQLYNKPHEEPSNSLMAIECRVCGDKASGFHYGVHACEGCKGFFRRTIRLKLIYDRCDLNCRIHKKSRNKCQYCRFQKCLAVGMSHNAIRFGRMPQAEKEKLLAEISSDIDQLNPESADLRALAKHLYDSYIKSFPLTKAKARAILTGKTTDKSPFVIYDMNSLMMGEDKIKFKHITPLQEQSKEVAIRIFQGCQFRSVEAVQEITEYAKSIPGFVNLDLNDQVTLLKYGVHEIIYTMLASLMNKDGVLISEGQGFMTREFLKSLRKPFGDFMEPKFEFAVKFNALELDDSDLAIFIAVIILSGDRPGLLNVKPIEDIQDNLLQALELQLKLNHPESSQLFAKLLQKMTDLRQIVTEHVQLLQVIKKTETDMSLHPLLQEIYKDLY

[2] = molecular target: T2, Peroxisome proliferator-activated receptor gamma (Homo sapiens, UniProt P37231); experiment: Agonist activity at human PPARgamma expressed in MG-63 cells by reporter gene-based transactivation assay
T2 sequence (P37231 whole entry): T1 sequence (whole entry)

[3] = molecular target: T2, Peroxisome proliferator-activated receptor gamma; experiment: Partial agonist activity at human PPARgamma expressed in MG-63 cells by reporter gene-based transactivation assay
[4] = molecular target: T1, Peroxisome proliferator-activated receptor gamma (Homo sapiens); experiment: Partial agonist activity at human PPARgamma expressed in MG-63 cells at 2 times EC50 concentration by reporter gene-based transactivation assay relative to PPARgamma full agonist

Emax [1]	EC50 [2]	EC50 [3]	Emax [4]	SMILES
–	–	210 nM	51%	COc1cc(O)c2c(c1C(=O)NCc1cc(C)cc3ccccc13)OC1=CC(O)=C(C(C)=O)C(=O)[C@]12C
–	–	94 nM	32%	COc1cc(CNC(=O)c2c(OC)cc(O)c3c2OC2=CC(O)=C(C(C)=O)C(=O)[C@]23C)c2ccccc2c1
–	–	680 nM	50%	COc1cc(O)c2c(c1C(=O)NCc1cc(OC(C)=O)cc3ccccc13)OC1=CC(O)=C(C(C)=O)C(=O)[C@]12C
–	–	200 nM	44%	COCc1cc(CNC(=O)c2c(OC)cc(O)c3c2OC2=CC(O)=C(C(C)=O)C(=O)[C@]23C)c2ccccc2c1

Further lines, the compound ahead of its results:

SMILES	Emax [1]	EC50 [2]	EC50 [3]	Emax [4]
COc1cc(O)c2c(c1C(=O)NCc1cc(CCCC(=O)O)cc3ccccc13)OC1=CC(O)=C(C(C)=O)C(=O)[C@]12C	105%	67 nM	–	–
COC(=O)CCCc1cc(CNC(=O)c2c(OC)cc(O)c3c2OC2=CC(O)=C(C(C)=O)C(=O)[C@]23C)c2ccccc2c1	99%	42 nM	–	–
COc1cc(O)c2c(c1C(=O)NCc1cc(CCC(=O)O)cc3ccccc13)OC1=CC(O)=C(C(C)=O)C(=O)[C@]12C	109%	320 nM	–	–
COC(=O)c1cc(CNC(=O)c2c(OC)cc(O)c3c2OC2=CC(O)=C(C(C)=O)C(=O)[C@]23C)c2ccccc2c1	–	–	880 nM	55%
COc1cc(O)c2c(c1C(=O)NCc1cc(C(=O)O)cc3ccccc13)OC1=CC(O)=C(C(C)=O)C(=O)[C@]12C	–	–	> 1000 nM	–
CCOc1cc(CNC(=O)c2c(OC)cc(O)c3c2OC2=CC(O)=C(C(C)=O)C(=O)[C@]23C)c2ccccc2c1	–	–	240 nM	22%
COC(=O)CCc1cc(CNC(=O)c2c(OC)cc(O)c3c2OC2=CC(O)=C(C(C)=O)C(=O)[C@]23C)c2ccccc2c1	–	–	130 nM	79%
COc1cc(O)c2c(c1C(=O)NCc1cc(O)cc3ccccc13)OC1=CC(O)=C(C(C)=O)C(=O)[C@]12C	–	–	130 nM	29%
